Assay results reported in EP0354042A2, “Aminobenzoic-acid derivatives to reduce side effects induced by an administration of immuno-suppressant” (priority 1988, dated 1990).

Key:
Bacillus subtilis H17 = experiment: Mutagenicity Rec-assay, recombination repair proficient strain; details: 16 hours at 37°C
Experimental: (§1) First, mutagenecity was studied with Rec-assay. […] The present substance was dissolved with sterlized water, 0.05 ml of the solution was absorbed by a round filter paper having a diameter of 8 mm and immediately the filter paper was laid on the medium (B-II agar) in a manner to cover each of the satrt point of the streak. Then, the mdium was cultured for 16 hours at a temperature of 37°C and measured growth inhibited area. Kanamycin was used as a negative control and mitomycin as a positive control.

[1] = test system: TA98 of Salmonella typhimurium; experiment: Reversion assay (reversion colony test) TA98; format: cell-based; details: 5,000 µg/disk, 37°C for 2 days; Drug-free Control 13
Experimental: (§2) In addition, a reversion assay was performed using TA98 and TA100 of Salmonella typhimurium (both are histidine-requiring bacteria).
(§3) 10% by volume of 0.5 mM bithion solution containing 0.5 mM histidine was added to a soft agar solution (prepared with 6g of NaCl, 6g of agar and 1,000 ml of distilled water). Then, 0.1 ml of a solution containing 1 x 10⁸ of the bacteria and 0.1 ml of a solution of the present substance were added to 2 ml of the soft agar solution, mixed well and obtained soft agar solution was multilayered on a minimal agar medium. The medium layered was cultured at 37°C for 2 days and number of reversion colonies was counted. Furylfuramide (AF2) was used as a positive control.

Wistar male rats [2] = experiment: Serum biochemical test, total bilirubin (liver function) of rats given CsA with the present substance; format: in vivo; details: CsA 25 mg/kg/day i.p. 3 weeks plus present substance 300 mg/kg/day orally
Experimental: (§4) Various clearance tests and a saccharide tolerance test were performed after completion of the administrations. Then, after sacrificing the rats, their blood was taken for serum biochemical and general blood tests.

Wistar male rats [3] = experiment: Saccharide tolerance test (pancreas function) of rats given CsA with the present substance; format: in vivo; details: CsA 25 mg/kg/day i.p. 3 weeks plus present substance 300 mg/kg/day orally
Experimental: as §4

human lymphocyte = experiment: Mixed lymphocyte culture, 3H-thymidine uptake (proliferation of lymphocytes); format: cell-based; details: CsA 0.1 µg/ml plus present substance 100 µg/ml, cultured 6 days;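 note: percent suppression of proliferation derived from uptake with CsA alone versus CsA plus substance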
Experimental: A mixture of 50 µl of human lymphocyte (1.6 x 10⁶/ml) with 50 µl of the lymphocytes treated with mitomycin C (MMC) (1.7 x 10⁶/ml) was cultured for 6 days and an uptake of ³H-thymidine, an index of proliferation of lymphocyte, was studied. The medium used for culture comprised bovine fetal serum (10% in quantity) and RPMI 1640 (90% in quantity). […] From the calculated ratio, the effects of the present substance on immuno function were studied.

[4] = Body weight of rats given CsA with the present substance; format: in vivo, Wistar male rats; details: at completion of the test; CsA 25 mg/kg/day i.p. 3 weeks plus present substance 300 mg/kg/day orally
Experimental: as §4

Bacillus subtilis M45 = experiment: Mutagenicity Rec-assay, recombination repair deficient strain; details: for Growth Inhibited Area M45: 16 hours at 37°C; for Growth Inhibited Area M45 - H17: difference between strains
Experimental: as §1

Jcl:ICR mice = experiment: Acute toxicity (LD50, Litchfield-Wilcoxon); format: in vivo; details: observed 7 days; for LD₅₀ Value Intraperitoneal: in physiological saline solution; for LD₅₀ Value Oral: oral by stomach sonde, in distilled water
Experimental: The acute toxicity was studied with Jcl:ICR mice through intraperitoneal route and oral route. For intraperitoneal route, the present substance was dissolved in a physiological saline solution and a predetermined dose of the substance was administered with an injector to the cavity. For oral route, the present substance was dissolved in a distilled water and administered forcibly through a stomach sonde.
After the administration, observation of toxicopathic symptoms of the mice were continued for 7 days and based on time to time death rates of the mice, LD₅₀ values were calculated. Both surviving and dead mice were anatomized and observed certain organs.

Wistar male rats [5] = experiment: Kidney function (inulin clearance, serum creatinine) of rats given CsA with the present substance; format: in vivo; details: CsA 25 mg/kg/day i.p. 3 weeks plus present substance 300 mg/kg/day orally
Experimental: as §4

[6] = test system: TA100 of Salmonella typhimurium; experiment: Reversion assay (reversion colony test) TA100; format: cell-based; details: 5,000 µg/disk, 37°C for 2 days; Drug-free Control 149
Experimental: as §2, §3

| Structure (SMILES) | Growth Inhibited Area H17 (Bacillus subtilis H17; 500 µg/disk) | Growth Inhibited Area H17 (Bacillus subtilis H17; 5,000 µg/disk) | No. of Reversion Colony TA98 [1] | TBI (seerum total bilirubin value) (Wistar male rats [2]) | Blood sugar value measured 10 minutes after the test (Wistar male rats [3]) | Insuline Value 10 Min.After The Test (Wistar male rats [3]) | Insuline Value Before The Test (Wistar male rats [3]) | Depressing Ratio (human lymphocyte) | Body Weight [4] | Growth Inhibited Area M45 (Bacillus subtilis M45; 500 µg/disk) | Growth Inhibited Area M45 - H17 (Bacillus subtilis M45; 500 µg/disk) | Growth Inhibited Area M45 (Bacillus subtilis M45; 5,000 µg/disk) | Growth Inhibited Area M45 - H17 (Bacillus subtilis M45; 5,000 µg/disk) | LD₅₀ Value Intraperitoneal (Jcl:ICR mice) | LD₅₀ Value Oral (Jcl:ICR mice) | Kidney Function Inulin Clearance (Wistar male rats [5]) | Kidney Function Serum Creatinine (Wistar male rats [5]) | No. of Reversion Colony TA100 [6] |
| --- | --- | --- | --- | --- | --- | --- | --- | --- | --- | --- | --- | --- | --- | --- | --- | --- | --- | --- |
| C[C@@H]1OC(Nc2ccc(C(=O)O)cc2)[C@H](O)[C@H](O)[C@H]1O (stereo partly drawn) [Compound 18, p-Aminobenzoic acid-N-L-rhamnoside] | 0 mm | 0 mm | 4 n/plate | 0.29 mg/dL | 573 mg/dL | 6.44 mµ/ml | 4.30 mµ/ml | 27% | 238 g | 0 mm | 0 mm | 0 mm | 0 mm | 15000 mg/kg | 12800 mg/kg | 1.97 mL/min | 0.64 mg/dL | 73 n/plate |
| CC1OC(Nc2ccccc2C(=O)[O-])C(O)C(O)C1O.[Na+] [Compound 20, o-Aminobenzoic acid-N-L-rhamnoside] | 0 mm | 2 mm | 9 n/plate | 0.31 mg/dL | 576 mg/dL | 6.38 mµ/ml | 4.34 mµ/ml | 26% | 233 g | 0 mm | 0 mm | 6 mm | 4 mm | > 15000 mg/kg | 12500 mg/kg | 1.95 mL/min | 0.64 mg/dL | 61 n/plate |
| O=C(O)c1ccc(NC2O[C@H](CO)[C@@H](O)[C@H](O)[C@@H]2O)cc1 (stereo partly drawn) [Compound 22, p-Aminobenzoic acid-N-D-mannoside] | 0 mm | 0 mm | 5 n/plate | 0.27 mg/dL | 569 mg/dL | 6.50 mµ/ml | 4.45 mµ/ml | 28% | 245 g | 0 mm | 0 mm | 0 mm | 0 mm | > 10000 mg/kg | >10000 mg/kg | 2.05 mL/min | 0.63 mg/dL | 138 n/plate |
| O=C(O)c1cccc(NC2O[C@H](CO)[C@@H](O)[C@H](O)[C@@H]2O)c1 (stereo partly drawn) [Compound 24, m-Aminobenzoic acid-N-D-mannoside] | 0 mm | 1 mm | 6 n/plate | 0.30 mg/dL | 578 mg/dL | 6.37 mµ/ml | 4.40 mµ/ml | 27% | 240 g | 0 mm | 0 mm | 7 mm | 6 mm | > 10000 mg/kg | > 10000 mg/kg | 2.00 mL/min | 0.64 mg/dL | 90 n/plate |
